# Test system: ob/ob mouse
# Test: Antidiabetic and hypolipaemic effect in the ob/ob mouse
# Assay type: in vivo
# Details: dose of 3 mg/kg; for variation in body weight: four days, body weight measured daily
# Experimental: The 10-week-old female ob/ob mouse (Harlan) is used for the in vivo tests. The animals are kept in a light-darkness cycle of 12 hours at 25° C. The mouse has a basal hyperglycaemia of 2 g/l. The animals are randomly selected with regard to their glycaemia to form groups of six. […] […] The control groups receive the solvents under the same conditions as the treated groups.
# The activity of the products is evaluated by measuring glycaemia, triglycerides and insulinaemia 24 hours after the final administration and by measuring body weight daily.
# [1] = twice per day for four days, 24 hours after the final administration
Structure (SMILES),variation in body weight,reduction in glycaemia [1],reduction in insulinaemia [1],reduction in triglycerides [1]
CCOC(Cc1ccc(OCCN2C(=O)COc3ccc(C(=NO)c4ccccc4)cc32)cc1)C(=O)O (centres unmarked) [Example 11],insignificant variation,25%,22%,45%
"CN(CCOc1ccc(CC2SC(=O)NC2=O)cc1)c1ccccn1 (centres unmarked) [rosiglitazone, reference compound]",significant increase,–,–,–

# — patent US20080113974A1, “Heterocyclic Oxime Compounds, A Process For Their Preparation And Pharmaceutical Compositions Containing Them” (LES LABORATOIRES SERVIER, priority 2005, published 2008)
